In patent US20160039676A1, “Fullerene Derivatives and Their Applications in Organic Photovoltaics” (Nano and Advanced Materials Institute Limited, priority 2014, published 2016):

How the values were obtained:
[1] = Electrochemical properties (onset oxidation/reduction potentials, HOMO, LUMO, gap); format: physicochemical; parameters: Eox / Ered: unit not given here; settings: for HOMO: HOMO = −e(Eox + 4.32); for Eg: HOMO-LUMO gap; for LUMO: LUMO = −e(Ered + 4.32); for Eox: onset oxidation potential; for Ered: onset reduction potential
Text: The energy difference between HOMO and LUMO is also illustrated in FIG. 4. […] The compounds of formulae 1b-d have similar energy difference between HOMO and LUMO, meaning their potential energy levels are similar. Among the compounds of formulae 1a-d, it appears that the compound of formula 1a has the best potential energy suitable for being applied in organic photovoltaics; the compound of formula 1c is the second best.

[2] = Relative solubility in non-halogenated solvents, evaluated by visual observation; format: physicochemical; settings: concentration 30 mg/mL
Experimental: Each of the compounds is added into the test tubes containing five organic solvents at a concentration of 30 mg/mL.

HOMO [1] [eV] | Eg [1] [eV] | LUMO [1] [eV] | Eox [1] | Ered [1] | Relative solubility in diethyl ether [2] | Relative solubility in ethanol [2] | Relative solubility in ethyl acetate [2] | Relative solubility in tetrahydrofuran (THF) ([2]; THF) | Structure (SMILES) | Relative solubility in toluene [2]
−6.03 | 2.25 | −3.78 | 1.71 | −0.54 | Insoluble | Insoluble | Insoluble | – | Cc1cccc(C)c1C(=O)OC12c3c4c5c6c7c8c(c9c%10c1c1c%11c3c3c%12c4c4c6c6c7c7c%13c8c9c8c9c%10c1c1c%10c%11c3c3c%11c%12c4c4c6c6c7c7c%13c8c8c9c1c1c%10c3c3c%11c4c6c4c7c8c1c34)C52OC[Si](C)(C)c1ccccc1 (stereo not drawn) [Formula 1b] | –
−6.12 | 2.29 | −3.83 | 1.80 | −0.49 | Insoluble | Insoluble | Insoluble | – | CCCC[Si](C)(C)OC12c3c4c5c6c7c8c(c9c%10c1c1c%11c3c3c%12c4c4c6c6c7c7c%13c8c9c8c9c%10c1c1c%10c%11c3c3c%11c%12c4c4c6c6c7c7c%13c8c8c9c1c1c%10c3c3c%11c4c6c4c7c8c1c34)C52OC(=O)c1c(C)cccc1C (stereo not drawn) [Formula 1c] | Soluble
−6.06 | 2.22 | −3.84 | 1.74 | −0.48 | Insoluble | Insoluble | Insoluble | Insoluble | Cc1cccc(C)c1C(=O)OC12c3c4c5c6c7c8c(c9c%10c1c1c%11c3c3c%12c4c4c6c6c7c7c%13c8c9c8c9c%10c1c1c%10c%11c3c3c%11c%12c4c4c6c6c7c7c%13c8c8c9c1c1c%10c3c3c%11c4c6c4c7c8c1c34)C52O[Si](C)(C)C(C)(C)C (stereo not drawn) [Formula 1d] | –

Structure (SMILES) | HOMO [1] [eV] | Eg [1] [eV] | LUMO [1] [eV] | Eox [1] | Ered [1] | Relative solubility in diethyl ether [2] | Relative solubility in ethanol [2] | Relative solubility in ethyl acetate [2] | Relative solubility in tetrahydrofuran (THF) ([2]; THF) | Relative solubility in toluene [2]
Cc1cccc(C)c1C(=O)OC12c3c4c5c6c7c8c(c9c%10c1c1c%11c3c3c%12c4c4c6c6c7c7c%13c8c9c8c9c%10c1c1c%10c%11c3c3c%11c%12c4c4c6c6c7c7c%13c8c8c9c1c1c%10c3c3c%11c4c6c4c7c8c1c34)C52O[Si](C)(C)c1ccccc1 (stereo not drawn) [Formula 1a] | −6.08 | 2.41 | −3.67 | 1.76 | −0.65 | Insoluble | – | – | – | Soluble
